Patent US20210137549A1, “DEVICE FOR CHEMICALLY ASSISTED DISSECTION” (AuXin Surgery SA, priority 2013, published 2021)
Where two headings read alike, the source gives them in different places. One block for each compound: values may come before it.

Key:
[1] = Stability study of solutions comprising Mesna and riboflavin 5′-phosphate sodium (HPLC quantification of Mesna); format: physicochemical; conditions: 4° C. and 20° C.
Procedure: A stability study was conducted for the purpose of evaluating a possible interaction between riboflavin 5′-phosphate sodium, a dye accepted for parenteral use in humans, and Mesna. […]
In order to validate the obtained data, a reference corresponding to a reconstituted solution of Mesna without riboflavin 5′-phosphate sodium was analyzed at the same time as the samples comprising riboflavin 5′-phosphate sodium (Table 5).

[2] = Stability study of Mesna powder in the presence of riboflavin 5′-phosphate sodium (weight, dry oven); format: physicochemical
Procedure: About 1.5 g of Mesna powder was accurately weighed, without or with 7 mg or 15 mg of riboflavin 5′-phosphate sodium, and placed in a dry oven at 20° C. for 1 month to test its stability (Table 6).

[3] = cited from earlier work
[4] = rats, intraduodenal administration compared with i.v.; cited from earlier work

variations in Mesna content after addition of riboflavin 5′-phosphate sodium ([1]; 0.23 mg/mL and 0.50 mg/mL RF5′PNa, before the 24 h point): ≤ 1%
stability of Mesna in dry form in the presence of riboflavin 5′-phosphate sodium (conclusion) ([2]; dry form, 1 month at 20° C.): stable
Compound: O=S(=O)([O-])CCS.[Na+] [Mesna, sodium 2-mercaptoethanesulfonate]

Compound: CN(C)c1ccc2nc3ccc(=[N+](C)C)cc-3sc2c1 [methylene blue]
effect of co-administration of mesna on pharmacokinetics ([3]; 100 mg methylene blue with and without mesna): did not alter the pharmacokinetics
urinary excretion of methylene blue and its leucoform ([3]; i.v. administration (second value of the pair)): 28 % dose
urinary excretion of methylene blue and its leucoform ([3]; oral administration (first value of the pair)): 18 % dose
estimated terminal half-life ([3]; whole blood, i.v. administration of 100 mg, seven volunteers): 5.25 h
area under the concentration-time curve ([3]; whole blood, i.v. administration of 100 mg): 137 nmol/min/mL
area under the concentration-time curve ([3]; whole blood, oral administration of 100 mg): 9 nmol/min/mL
tissue concentrations after intraduodenal versus i.v. administration [4]: higher concentrations in intestinal wall and liver but lower concentrations in whole blood and brain

interaction of riboflavin 5′-phosphate sodium with Mesna in solution (conclusion) ([1]; phosphate buffer, 1 h and 24 h): does not interfere with or degrade Mesna
Compound: Cc1cc2nc3c(=O)[nH]c(=O)nc-3n(C[C@H](O)[C@H](O)[C@H](O)COP(=O)([O-])O)c2cc1C.[Na+] [riboflavin 5′-phosphate sodium]

W1 = weight after 1 month in dry oven at 20° C. ([2]; after 1 month in dry oven at 20° C., ± standard deviation): 4.807 ± 0.016 g
W0 = weight before placement in dry oven at 20° C. ([2]; before placement in dry oven, ± standard deviation): 4.907 ± 0.038 g
Compound: O=S(=O)([O-])CCS.[Na+] [1.5 g Mesna powder]
